# Test results: US20260374766A1, “METHODS FOR TREATING CANCER” (Antares Therapeutics, Inc., priority 2022, published 2026)
# Where two headings read alike, the source gives them in different places.
# Columns and labels:
# H1299 p53 Y220C = experiment: Cell Proliferation Assay (CellTiter-Glo, CTG), H1299 p53 Y220C (NClH1299-inducible p53 Y220C); type: cell-based; details: Homo sapiens, NCI-H1299, 120 h, NClH1299-inducible p53 Y220C cells, 5 days
# Outline: (§1)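 Tet-One inducible p53 Y220C or R273H constructs were stably introduced into NCI-H1299 by lentiviral transduction; NUGC3 was used as is. Cells (250-500 per well) were exposed to compound for 5 days, then CellTiter-Glo was added for 10 min at room temperature and IC50 was calculated from luminescence.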
# H1299 p53 R273H = experiment: Cell Proliferation Assay (CellTiter-Glo, CTG), H1299 p53 R273H (NClH1299-inducible p53 R273H); type: cell-based; details: Homo sapiens, NCI-H1299, 120 h, NClH1299-inducible p53 R273H cells, 5 days
# Outline: as §1
# p53 Y220C = p53 Y220C (Homo sapiens, UniProt P04637, Y220C); experiment: Luciferase Reporter Assay (Luc), p53 response element, NClH1299 cells with inducible p53 Y220C; type: cell-based; details: 6 hour; for AC50: read-out: Luc P53 Y220C AC50
# Outline: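 Steps: seed 5,000 cells/well; induce mutant p53 with 0.5 ug/mL doxycycline for 24 h; treat with compound 6 h; add equal volume One-Glo, shake 5 min at room temperature; measure luciferase immediately.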
# NUGC3 p53 Y220C = experiment: Cell Proliferation Assay (CellTiter-Glo, CTG), NUGC3 p53 Y220C; type: cell-based; details: Homo sapiens, NUGC-3, 120 h, NUGC3 cells, 5 days
# Outline: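 NClH1299 lines stably transduced with Tet-inducible p53 Y220C or R273H, plus NUGC3, were treated with compound for 5 days at 250-500 cells/well. IC50 derived from CellTiter-Glo luminescent signal after 10 min room-temperature incubation.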
# [1] = biological target: T1, p53 Y220C mutant protein (amino acid residues 94-293) (Homo sapiens, UniProt P04637, Y220C); experiment: Surface Plasmon Resonance (SPR) assay, Kd_kinetic; type: binding; details: SPR; p53 Y220C; read-out: SPR P53 Y220C KD kinetic
# T1 construct: p53 Y220C mutant protein (amino acid residues 94-293)
# T1 sequence (P04637 94-293, stated change not applied): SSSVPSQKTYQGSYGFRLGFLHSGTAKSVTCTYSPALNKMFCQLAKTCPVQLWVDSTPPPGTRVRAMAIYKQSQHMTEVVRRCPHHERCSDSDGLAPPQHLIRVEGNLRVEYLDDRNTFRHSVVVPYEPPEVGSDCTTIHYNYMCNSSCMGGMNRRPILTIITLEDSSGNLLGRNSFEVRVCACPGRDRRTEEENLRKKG
# Outline: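 Kd values come from fitting sensorgrams to a 1:1 binding model. Sensorgrams were recorded on a Biacore 8K at 16 or 20 °C in pH 7.5 Tris buffer with 100 mM NaCl, 1 mM DTT, detergents and 1% DMSO.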
# [2] = luciferase reporter, NClH1299 inducible p53 Y220C
# [3] = NClH1299 cells with inducible p53 Y220C
# [4] = NClH1299 cells with inducible p53 Y220C, 10 uM tool compound as positive control
SMILES,IC50 (H1299 p53 Y220C; CellTiter-Glo) [nM],IC50 (H1299 p53 R273H; CellTiter-Glo) [nM],AC50 (p53 Y220C; [2]) [nM],Emax (p53 Y220C; [2]) [%],IC50 (NUGC3 p53 Y220C; CellTiter-Glo) [nM],Kd [1] [nM],IC50 (H1299 p53 Y220C) [nM],IC50 (H1299 p53 R273H) [nM],AC50 (p53 Y220C; [3]) [nM],Emax (p53 Y220C; [4]) [%],IC50 (NUGC3 p53 Y220C) [nM]
"CNC(=O)c1ccc(NCC#Cc2cc3c(N[C@@H]4CCN(C)C[C@@H]4F)nccn3c2SC(F)(F)F)c(O)c1 [Example 446, 4-{[3-(1-{[(3S,4R)-3-fluoro-1-methylpiperidin-4-yl]amino}-6-[(trifluoromethyl)sulfanyl]pyrrolo[1,2-a]pyrazin-7-yl)prop-2-yn-1-yl]amino}-3-hydroxy-N-methylbenzamide]",< 750,≥ 10000,< 750,> 90,< 750,< 10,–,–,–,–,–
CN1CC[C@@H](Nc2cccn3c(SC(F)(F)F)c(C#CCNc4ccc(C(=O)NCC5COC5)cc4)cc23)[C@@H](F)C1 [Example 447],< 750,≥ 10000,< 750,> 90,< 750,< 10,–,–,–,–,–
CNC(=O)c1ccc(OC)c(NCC#Cc2cc3c(N[C@@H]4CCN(C[C@H](C)O)C[C@@H]4F)nccn3c2SC(F)(F)F)c1 [Example 448],< 750,5000 to 8000,< 750,> 90,< 750,< 10,–,–,–,–,–
CN1CC[C@@H](Nc2cccn3c(SC(F)(F)F)c(C#CCNc4ccc(P(C)(C)=O)c5c4OCC5)cc23)[C@@H](F)C1 [Example 449],< 750,5000 to 8000,< 750,> 90,< 750,< 10,–,–,–,–,–
"CNC(=O)c1ccc(NCC#Cc2cc3c(N[C@@H]4CCN(C)C[C@@H]4F)cccn3c2SC(F)(F)F)c(C(F)F)c1 [Example 450, 3-(difluoromethyl)-4-{[3-(8-{[(3S,4R)-3-fluoro-1-methylpiperidin-4-yl]amino}-3-[(trifluoromethyl)sulfanyl]indolizin-2-yl)prop-2-yn-1-yl]amino}-N-methylbenzamide]",< 750,≥ 10000,< 750,> 90,< 750,< 10,–,–,–,–,–
COc1cc(C(=O)O)ccc1NCC#Cc1cc2c(N[C@@H]3CCN(C)C[C@@H]3F)cccn2c1SC(F)(F)F [Example 451],< 750,≥ 10000,< 750,> 90,< 750,< 10,–,–,–,–,–
CN1CC[C@@H](Nc2cccn3c(SC(F)(F)F)c(C#CCNc4ccc(P(C)(C)=O)c5ccoc45)cc23)[C@@H](F)C1 [Example 452],< 750,< 5000,< 750,> 90,< 750,< 10,–,–,–,–,–
CN1CC[C@@H](Nc2cccn3c(SC(F)(F)F)c(C#CCNc4ccc(C(=O)NC[C@@H]5CCO5)cc4)cc23)[C@@H](F)C1 [Example 453],< 750,≥ 10000,< 750,> 90,< 750,< 10,–,–,–,–,–
"CNC(=O)c1ccc(NCC#Cc2cc3c(N[C@@H]4CCNC[C@@H]4F)cccn3c2SC(F)(F)F)c(O)c1 [Example 455, 4-{[3-(8-{[(3S,4R)-3-fluoropiperidin-4-yl]amino}-3-[(trifluoromethyl)sulfanyl]indolizin-2-yl)prop-2-yn-1-yl]amino}-3-hydroxy-N-methylbenzamide]",–,–,–,–,–,< 10,< 750,5000 to 8000,< 750,80 to 90,< 750
COc1ccc(C(=O)N[C@@H](C)[C@H](C)O)cc1NCC#Cc1cc2c(N[C@@H]3CCN(C)C[C@@H]3F)cccn2c1SC(F)(F)F [Example 456],–,–,–,–,–,< 10,< 750,≥ 10000,< 750,> 90,< 750
CN1CC[C@@H](Nc2cccn3c(SC(F)(F)F)c(C#CCNc4ccc(C(=O)NCC(C)(C)O)cc4)cc23)[C@@H](F)C1 [Example 457],–,–,–,–,–,< 10,< 750,8000 to 10000,< 750,> 90,< 750
CN1CC[C@@H](Nc2cccn3c(SC(F)(F)F)c(C#CCNc4ccc(C(=O)NC[C@H](O)CO)cc4)cc23)[C@@H](F)C1 [Example 460],–,–,–,–,–,< 10,< 750,≥ 10000,< 750,> 90,< 750
COc1ccc(C(=O)NC[C@@H](O)CO)cc1NCC#Cc1cc2c(N[C@@H]3CCN(C)C[C@@H]3F)cccn2c1SC(F)(F)F [Example 462],–,–,–,–,–,< 10,< 750,≥ 10000,< 750,> 90,< 750
CNC(=O)c1ccc(OC2COC2)c(NCC#Cc2cc3c(N[C@@H]4CCNC[C@@H]4F)cccn3c2SC(F)(F)F)n1 [Example 463],–,–,–,–,–,< 10,< 750,≥ 10000,< 750,> 90,< 750
COc1cc(C(N)=O)ccc1NCC#Cc1cc2c(N[C@@H]3CCN(C)C[C@@H]3F)cccn2c1SC(F)(F)F [Example 464],–,–,–,–,–,< 10,< 750,≥ 10000,< 750,> 90,< 750
CN1CC[C@@H](Nc2cccn3c(SC(F)(F)F)c(C#CCNc4ccc(C(=O)N[C@H]5C[C@@H](O)C5)cc4)cc23)[C@@H](F)C1 [Example 465],–,–,–,–,–,< 10,< 750,≥ 10000,< 750,> 90,< 750
"CNC(=O)c1ccc(NCC#Cc2cc3c(N[C@@H]4CCN(C)C[C@@H]4F)cccn3c2SC(F)(F)F)c(Cl)c1 [Example 466, 3-chloro-4-{[3-(8-{[(3S,4R)-3-fluoro-1-methylpiperidin-4-yl]amino}-3-[(trifluoromethyl)sulfanyl]indolizin-2-yl)prop-2-yn-1-yl]amino}-N-methylbenzamide]",–,–,–,–,–,< 10,< 750,≥ 10000,< 750,80 to 90,< 750
COc1ccc(C(=O)N[C@H](C)[C@H](C)O)cc1NCC#Cc1cc2c(N[C@@H]3CCN(C)C[C@@H]3F)cccn2c1SC(F)(F)F [Example 468],–,–,–,–,–,< 10,< 750,8000 to 10000,< 750,> 90,< 750
"CNC(=O)c1ccc(NCC#Cc2cc3c(N[C@@H]4CCN(C)C[C@@H]4F)cccn3c2SC(F)(F)F)c(O)c1 [Example 469, 4-{[3-(8-{[(3S,4R)-3-fluoro-1-methylpiperidin-4-yl]amino}-3-[(trifluoromethyl)sulfanyl]indolizin-2-yl)prop-2-yn-1-yl]amino}-3-hydroxy-N-methylbenzamide]",–,–,–,–,–,< 10,< 750,5000 to 8000,< 750,> 90,< 750
"[2H]C([2H])([2H])Oc1ccc(C(=O)NC)cc1NCC#Cc1cc2c(N[C@@H]3CCN(C)C[C@@H]3F)nccn2c1SC(F)(F)F [Example 470, 3-((3-(1-(((3S,4R)-3-fluoro-1-methylpiperidin-4-yl)amino)-6-((trifluoromethyl)thio)pyrrolo[1,2-a]pyrazin-7-yl)prop-2-yn-1-yl)amino)-4-(methoxy-d3)—N-methylbenzamide]",–,–,–,–,–,< 10,< 750,≥ 10000,< 750,> 90,< 750
COc1ccc(C(=O)N[C@H]2C[C@@H](O)C2)cc1NCC#Cc1cc2c(N[C@@H]3CCN(C)C[C@@H]3F)cccn2c1SC(F)(F)F [Example 471],–,–,–,–,–,< 10,< 750,≥ 10000,< 750,> 90,< 750
CNC(=O)c1ccc(O)c(NCC#Cc2cc3c(N[C@@H]4CCN(C)C[C@@H]4F)cccn3c2SC(F)(F)F)c1 [Example 472],–,–,–,–,–,< 10,< 750,≥ 10000,< 750,> 90,< 750
COc1ccc(C(=O)N[C@H](C)[C@@H](C)O)cc1NCC#Cc1cc2c(N[C@@H]3CCN(C)C[C@@H]3F)cccn2c1SC(F)(F)F [Example 473],–,–,–,–,–,< 10,< 750,≥ 10000,< 750,> 90,< 750
